Source: patent publication US12324447B2, “Animal feed compositions and uses thereof” (priority 2015, dated 2025)
Like-named read-outs stand apart in the source and are kept apart here. Marks after values point to notes of the source that are not given here.

Key:
[1] = In vivo broiler trial (growth performance)
[2] = In vivo piglet trial (growth performance); design: species or system weaned piglets (Large-White x Redon); conditions: for ADFI (g/d), Mean / ADWG (g/d), Mean / FCR, Mean: SEQ ID NO: 257 50 mg/kg feed, VevoVital 5000 mg/kg feed; for ADFI, % relative NC / ADWG, % relative NC / FCR, % relative NC: relative to negative control
[3] = tested on: Clostridium perfringens DSM756; assay type: cell-based; conditions: for Diameter of clearing zone (mm): lysozymes 100 μg/ml, Bacitracin zinc salt 50 μg/ml; for Antimicrobial activity against Clostridium perfringens (in words): RDA
[4] = tested on: Exiguobacterium undea (DSM14481); assay: Lysozyme activity turbidity assay (optical density drop at 540 nm); assay type: biochemical, Exiguobacterium undae
[5] = tested on: Micrococcus lysodeikticus ATTC No. 4698; assay: as above
[6] = Finisher (d 36-42), SEQ ID NO: 257 25 mg/kg feed, Avilamycin 10 mg/kg
[7] = Finisher (d 36-42), relative to unsupplemented control
[8] = Grower (d 22-36), SEQ ID NO: 257 25 mg/kg feed, Avilamycin 10 mg/kg
[9] = Grower (d 22-36), relative to unsupplemented control
[10] = Starter (d 1-22), SEQ ID NO: 257 25 mg/kg feed, Avilamycin 10 mg/kg
[11] = Starter (d 1-22), relative to unsupplemented control
[12] = Whole period (day 1 to day 42), SEQ ID NO: 257 25 mg/kg feed, Avilamycin 10 mg/kg
[13] = Whole period, relative to unsupplemented control

Molecule: COC[C@H]1O[C@@H](OC2OC[C@@H]3O[C@]4(O[C@H]3[C@H]2OC(=O)C(C)C)O[C@H](C)[C@@](O)(C(C)=O)[C@@H]2OCO[C@H]24)[C@@H](OC)[C@@H](O)[C@@H]1O[C@@H]1O[C@H](C)[C@H](OC)[C@H](O[C@H]2C[C@@]3(C)OC4(C[C@@H](O)[C@H](O[C@H]5C[C@@H](O)[C@H](OC(=O)c6c(C)c(Cl)c(O)c(Cl)c6OC)[C@@H](C)O5)[C@@H](C)O4)O[C@@H]3[C@@H](C)O2)[C@H]1O (stereo partly shown) [Avilamycin, reference compound]
- FCR [1, 6]: 1.982
- Feed intake (g/b) [1, 6]: 1460 g/b
- Weight gain (g/b) [1, 6]: 738 g/b
- FCR, Relative to C (%) [1, 7]: 101.1%
- Feed intake, Relative to C (%) [1, 7]: 98.2%
- Weight gain, Relative to C (%) [1, 7]: 97.0%
- FCR [1, 8]: 1.683
- Feed intake (g/b) [1, 8]: 2242 g/b
- Weight gain (g/b) [1, 8]: 1334 g/b
- FCR, Relative to C (%) [1, 9]: 97.7%
- Feed intake, Relative to C (%) [1, 9]: 98.1%
- Weight gain, Relative to C (%) [1, 9]: 100.4%
- FCR [1, 10]: 1.452
- Feed intake (g/b) [1, 10]: 1593 g/b
- Weight gain (g/b) [1, 10]: 1102 g/b
- FCR, Relative to C (%) [1, 11]: 100.8%
- Feed intake, Relative to C (%) [1, 11]: 101.0%
- Weight gain, Relative to C (%) [1, 11]: 100.6%
- EPEF [1, 12]: 397
- FCR [1, 12]: 1.669
- Feed intake (g/b) [1, 12]: 5312 g/b
- Motality [1, 12]: 12.5
- Weight gain (g/b) [1, 12]: 3184 g/b
- EPEF, Relative to C (%) [1, 13]: 95.0%
- FCR, Relative to C (%) [1, 13]: 99.3%
- Feed intake, Relative to C (%) [1, 13]: 99.3%
- Weight gain, Relative to C (%) [1, 13]: 99.9%
- EPEF worse by (compared to NC diet) ([1]; whole period, Avilamycin 10 mg/kg): 5.0%
- FCR improvement compared to NC diet ([1]; whole period, GH24 lysozyme 25 mg/kg, Avilamycin 10 mg/kg): 0.7%

Molecule: O=C(O)c1ccccc1 [VevoVital, benzoic acid]
- ADFI (g/d), Mean ([2]; day 0-14): 355 g/day
- ADWG (g/d), Mean ([2]; day 0-14): 304 g/day
- FCR, Mean ([2]; day 0-14): 1.168^a
- ADFI, % relative NC ([2]; day 0-14): 98.6%
- ADWG, % relative NC ([2]; day 0-14): 104.8%
- FCR, % relative NC ([2]; day 0-14): 94.2%
- ADFI (g/d), Mean ([2]; day 0-42): 709^ab g/d
- ADWG (g/d), Mean ([2]; day 0-42): 526 g/day
- FCR, Mean ([2]; day 0-42): 1.342^a
- ADFI, % relative NC ([2]; day 0-42): 96.6%
- ADWG, % relative NC ([2]; day 0-42): 105.4%
- FCR, % relative NC ([2]; day 0-42): 90.4%
- ADFI (g/d), Mean ([2]; day 14-42): 886^ab g/d
- ADWG (g/d), Mean ([2]; day 14-42): 638 g/day
- FCR, Mean ([2]; day 14-42): 1.398^a
- ADFI, % relative NC ([2]; day 14-42): 95.3%
- ADWG, % relative NC ([2]; day 14-42): 105.8%
- FCR, % relative NC ([2]; day 14-42): 90.5%
- Improvement on FCR compared to the negative control ([2]; overall period (day 0 to day 42), lysozyme 50 mg/kg, VevoVital 5000 mg/kg): 9.6%
- Improvement of ADWG compared to NC ([2]; pre-starter period (days 0-14)): 4.8%
- Improvement of ADWG compared to NC ([2]; starter period (days 14-42)): 5.8%
- Improvement to FCR compared to NC ([2]; starter period, from day 15 to day 42, SEQ ID NO: 257 50 mg/kg, VevoVital (PC)): 9.5%
- Improvement of ADWG compared to NC ([2]; whole period (day 0 to day 42)): 5.4%

Molecule: Bacitracin zinc salt [reference compound]
- Diameter of clearing zone (mm) ([3]; Experiment 1, 1/2 MHB pH 6): 11 mm
- Diameter of clearing zone (mm) ([3]; Experiment 1, 1/10 MHB pH 7): 22 mm
- Diameter of clearing zone (mm) ([3]; Experiment 2, 1/10 MHB pH 7): 18 mm

B1: SEQ ID NO: 297: mature GH24 lysozyme from Mortierella sp. ZY002 (protein, listed as Mortierella sp.)
chain: YPITGADALHCRSGPGTSYPIQKTLRPPQDIKIQCQEPGTVVNGVSLWDKTQFGCYVSDYYVKTGTGNYVAPRCNSGGSSSACTGLNDAGINLIKEFEGFVPRPAPDPIGLPTVGYGHLCQTKGCGEVKYSFPLTTATATALLKDDLPKYTSCLAKALNGKPKLNKNQWAALASWTFNVGCGNMKSSSLITRLNAGQNPNTVATEELPKWKLAGGKVLPGLVRRRAAEVKLFKTANSSQGYPKCA
modifications: mat_peptide (1)..(245)
notes: mature GH24 lysozyme from Mortierella sp; ZY002
- Lysozyme activity against Exiguobacterium undea (in words) ([4]; OD drop assay): good activity
- Lysozyme Activity against Exiguobacterium undae as measured by Optical Density Drop ([4]; assay pH 6 (Table 14)): +++
- Lysozyme activity against Micrococcus lysodeikticus (in words) ([5]; OD drop assay): good activity
- Lysozyme Activity against Micrococcus lysodeikticus as measured by Optical Density Drop ([5]; assay pH 6 (Table 14)): ++++

B2: SEQ ID NO: 269: amino acid sequence deduced from SEQ ID NO: 268: GH24 catalytic domain with QCVG-linker and signal peptide; precursor of SEQ ID NO: 270 (protein)
chain: MAKVSTLTIALLTMASQARAQCVGCKPPPINAATVALIKEFEGFVPKPAPDPIGLPTVGYGHLCKTKGCKEVPYSFPLTQETATKLLQSDIKTFTSCVSNYVKDSVKLNDNQYGALASWAFNVGCGNVQTSSLIKRLNAGENPNTVAAQELPKWKYAGGKVMPGLVRRRNAEVALFKKPSSVQAHPPKC
- Antimicrobial activity against Clostridium perfringens (in words) ([3]; 1/10 MHB, pH 7): incomplete inhibition of growth
- Antimicrobial activity against Clostridium perfringens (in words) ([3]; 50% MHB, pH 6): no inhibition of growth
